Assay results as given in patent US20250221982A1, “COMPOSITIONS AND METHODS FOR LOCAL DELIVERY OF PHARMACEUTICAL AGENTS TO TREAT CANCER” (The General Hospital Corporation, priority 2018, published 2025).

Assays:
B16-F10 melanoma cells = assay: Topical calcipotriene plus IP DMXAA against subcutaneous B16-F10 melanoma in mice; format: in vivo, mouse (wild-type C57BL/6); conditions: for T cell (CD3+CD19−) infiltrate within the treated melanoma tumors / proliferation (Ki67+) of CD4+ and CD8+ tumor infiltrating T lymphocytes (melanoma tumors): flow cytometry at harvest; for cutaneous melanoma growth (tumor volume over time): three applications, topical calcipotriene 40 nmol, IP DMXAA 400 μg, compared to EtOH plus saline, p=0.019 for the combination
Procedure: (2A) Schematic diagram of the experimental protocol used to determine the efficacy of calcipotriene plus DMXAA as a localized immunotherapy for melanoma. B16-F10 melanoma cells are implanted subcutaneously into the flanks of wild-type C57BL/6 mice. When tumors reached 5 mm in diameter (day 14), the following treatments were applied three times: (a) 40 nmol calcipotriene in 20 microliters of 100% EtOH followed by IP injection of 400 μg DMXAA in 100 μl saline, (b) 40nmol calcipotriene in 20 microliters of 100% EtOH followed by IP injection of 100 μl saline, (c) 20 microliters of 100% EtOH followed by IP injection of 400 μg DMXAA in 100 μl saline, and (d) 20 microliter 100% EtOH followed by IP injection of 100 μl saline.
Melanoma Cells (B16-F10, ATCC, Manassas, VA) were injected subcutaneously into flanks of mice at 2×10^5 cells per 100 μl of 1:1 ratio of DMEM (Corning) at day 0. Flank regions of recipient mice were shaved prior to cancer cell injection. Topical treatment with calcipotriene or EtOH together with intraperitoneal (IP) injection of DMXAA (murine STING agonist, 5,6-Dimethylxanthenone-4-acetic Acid, ASA404, or Vadimezan) or normal saline were initiated when tumor sizes reached 5 mm in diameter. Mice were divided into 4 groups and were treated topically with either calcipotriene (40 nmol) or ethanol (EtOH) as carrier directly on the tumor sites. Following treatment of either calcipotriene or EtOH (control), mice were injected IP with either 400 μg DMXAA in 100 μl normal saline or normal saline alone (control). Calcipotriene/EtOH and DMXAA/saline treatments were re-applied two more times (FIG. 2A). Animals were monitored daily and tumors measured over time to determine the impact of treatments on melanoma growth. At harvest, tumors were weighed, and the tumor infiltrating T cells were profiled using flow cytometry.

[1] = tested on: PyMTtg primary breast cancer cells; assay: Topical treatment of subcutaneous PyMTtg breast cancer tumors in mice; format: in vivo, mouse (wild-type C57BL/6); conditions: two topical applications; calcipotriene 80 nmol, imiquimod 5% cream; compared to EtOH plus control cream; p=0.011 for the combination
Source text: PyMTtg primary breast cancer cells are implanted subcutaneously into the inguinal regions of wild-type C57BL/6 mice. When tumors reached 5 mm in diameter (day 13), the following topical treatments applied to the tumor sites twice: (a) 80nmol calcipotriene in 20 microliters of 100% EtOH followed by 5% imiquimod cream, (b) 80nmol calcipotriene in 20 microliter 100% EtOH followed by moisturizing (control) cream, (c) 20 microliter 100% EtOH followed by 5% imiquimod cream, and (d) 20 microliter 100% EtOH followed by moisturizing (control) cream.
Breast cancer cells were obtained from PyMTtg mice that develop spontaneous breast cancer resembling luminal type of breast cancer in humans^12. Breast cancers of PyMTtg mice were harvested before the tumors reached 2 cm in diameter. Cancers were excised and dissociated into single cell suspension. Breast cancer cells were re-suspended at a concentration of 1×10^6 cells per 100 μl of 1:1 ratio of RPMI and Matrigel Membrane Matrix (Corning). Inguinal regions of recipient mice were shaved prior to cancer cell injection. 1×10^6 cells were injected subcutaneously at day 0. Topical treatments were applied when tumor sizes reached 5 mm in diameter. […] Animals were monitored daily and tumors measured over time to determine the impact of topical treatments on breast cancer growth. […]

SMILES | T cell (CD3+CD19−) infiltrate within the treated melanoma tumors (B16-F10 melanoma cells) | proliferation (Ki67+) of CD4+ and CD8+ tumor infiltrating T lymphocytes (melanoma tumors) (B16-F10 melanoma cells) | cutaneous melanoma growth (tumor volume over time) (B16-F10 melanoma cells) | cutaneous breast tumor growth (tumor volume over time) [1]
Cc1ccc2c(=O)c3cccc(CC(=O)O)c3oc2c1C [DMXAA, 5,6-Dimethylxanthenone-4-acetic Acid] | absent | absent | did not show a significant impact on melanoma development | 
C=C1/C(=C\C=C2/CCC[C@]3(C)[C@@H]([C@H](C)/C=C/[C@@H](O)C4CC4)CC[C@@H]23)C[C@@H](O)C[C@@H]1O [calcipotriene] | absent | absent | showed efficacy in inhibiting melanoma growth | did not show a significant impact on breast cancer growth
CC(C)Cn1cnc2c(N)nc3ccccc3c21 [imiquimod] |  |  |  | did not show a significant impact on breast cancer growth
